Measured values published in patent publication US9790496B2, “Microrna compounds and methods for modulating MIR-21 activity” (Regulus Therapeutics, Inc., priority 2011, dated 2017).
Values joined by “and” are separate entries in the source; they are usually repeats but may differ in a detail not shown here. Equal entries are not always repeated.

Tests used:
[1] = test system: ischemia reperfusion injury (IRI) model; assay: Unilateral IRI model: collagen area fraction of kidney tissue; type: in vivo, mouse
Experimental: (§1) A model of ischemia reperfusion injury (IRI) is created in the mouse through unilateral or bilateral clamping of kidney arteries, which leads to tubule damage, inflammation, and fibrosis. Kidney dysfunction can occur either early (<5 days) or late (>7 days) in this model, with the early time points useful to test candidate agents for the treatment of acute kidney injury, and the later time points useful to model chronic fibrosis.
(§2) Anti-miR-21 compounds were tested in the unilateral IRI model. Unilateral IRI was induced for a period of 30 minutes. Treatment groups were as follows: sham IRI procedure; IRI with PBS administered subcutaneously; IRI with anti-miR-21 compound 25070 administered intraperitoneally at a dose of 20 mg/kg; the 2′-fluoro/2′-MOE modified anti-miR-21 25919 administered intraperitoneally at a dose of 20 mg/kg; and a 2′-fluoro/2′ modified mismatch anti-miR-21 (having three mismatches to the sequence of miR-21) 25319 administered intraperitoneally at a dose of 20 mg/kg. PBS or anti-miR compound was administered on days 5, 6, and 7 following IRI, and animals were sacrificed 14 days after IRI. As anti-miR compound is administered 5 days following the injury to the kidney, or later, when fibrosis has already occurred to some extent, this treatment regimen is considered a therapeutic regimen, rather than a prophylactic regimen.
(§3) Kidney tissue was collected for analysis of collagen 1A1 and collagen 3A1 expression (shown in Table O), and collagen area fraction (shown in Table P).
(§4) A similar study was performed with the same treatment groups and additional days of treatment. In this study, treatments were administered intraperitoneally at days 5, 6, 7, 14, and 21 following the IRI procedure Animals were sacrificed on Day 27, and kidney tissue was collected for analysis of collagen 1A1 and collagen 3A1 expression, as well as collagen area fraction.

[2] = test system: collagen 1A1 and collagen 3A1 expression in kidney, ischemia reperfusion injury (IRI) model; assay: Unilateral ischemia reperfusion injury (IRI) model: kidney collagen 1A1 and collagen 3A1 expression; type: in vivo, mouse
Experimental: as §1, §2, §3, §4
In order to assess the flexibility of administration of the anti-miR-21 compound 25070, the activity of the compound in the 14 day study above, where anti-miR-21 was administered at […] following the IRI procedure, to a different 14 day study where anti-miR-21 was administered intraperitoneally at days 3, 5, and 7 following the IRI procedure.

[3] = test system: ischemia reperfusion injury/nephrectomy (IR/Nx) model; assay: Survival rate of IR/Nx model mice two days after nephrectomy; type: in vivo
Experimental: The survival rate of IR/Nx model mice two days after nephrectomy was determined across six different experiments to determine if administration of anti-miR-21 compounds increases survival. In the first three experiments, anti-miR-21 compound was administered on days 5, 6, and 7 after ischemia reperfusion injury, and nephrectomy occurred on day 10 or day 11. In the second three experiments, anti-miR-21 compound was administered on days 2, 3, and 4, and nephrectomy occurred on day 7.

[4] = test system: collagen 1A1 and collagen 3A1 expression in kidney, unilateral ureteral obstruction (UUO) model; assay: UUO model of kidney fibrosis: kidney collagen 1A1 and collagen 3A1 expression by real-time PCR; type: in vivo, mice; conditions: for Collagen 1A1 (Normalized Expression), individual animal / Collagen 3A1 (Normalized Expression), individual animal: 20 mg/kg
Summary of the method: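 Fibrosis induced by unilateral ureter ligation, groups of 8; anti-miR-21 compounds dosed at 20 mg/kg around surgery (days −3, −1, +5 or −5, −3, +3; repeat study subcutaneous at −5, −2, +3). Kidneys taken on day 10 or 11; Col1A1 and Col3A1 mRNA measured by real-time PCR, normalized to GAPDH and, in one study, also to sham.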

[5] = IRI, 14 day study, dosing Day 3, 5, 7 intraperitoneally, fold change relative to sham
[6] = unilateral IRI, 20 mg/kg intraperitoneally on days 5, 6, 7, sacrifice 14 days after IRI, 20 mg/kg
[7] = unilateral IRI, intraperitoneally on days 5, 6, 7, 14, 21, sacrifice Day 27
[8] = UUO comparison study, 25070 20 mg/kg s.c. at days -5, -2, +3, irbesartan PO daily days 0-7, sacrifice Day 10
[9] = UUO, 20 mg/kg at days -3, -1, +5 (prophylactic), kidney at day 11, real-time PCR normalized to GAPDH then sham
[10] = meta-analysis of repeated UUO studies, 20 mg/kg at days -3, -1, +5, kidney at day 11
[11] = repeat UUO study, 20 mg/kg SC, prophylactic

AECSATCSAGTCSTGAUSAAGCSTAE (ACATCAGTCTGATAAGCTA; modified nucleosides coded in name, code key not given here) [Compound 25070]
Collagen Area Fraction (#), individual animal ([1]; 20 mg/kg intraperitoneally on days 5, 6, 7, sacrifice 14 days after IRI, 20 mg/kg): 10.266 and 11.772 and 10.267 and 8.404 and 7.862 and 6.975 and 8.381 and 13.773
Collagen Area Fraction (#), Mean ([1]; 20 mg/kg intraperitoneally on days 5, 6, 7, sacrifice 14 days after IRI, group mean): 9.7
reduction in collagen area fraction (in words) ([1]; i.p. 20 mg/kg on days 5, 6, 7, sacrificed 14 days after IRI): statistically significant reduction
reduction in collagen area fraction (in words) ([1]; i.p. on days 5, 6, 7, 14, 21, sacrificed Day 27): statistically significant reduction
Collagen Area Fraction (#), individual animal ([1]; intraperitoneally on days 5, 6, 7, 14, 21, sacrifice Day 27): 7.354 and 9.241 and 9.589 and 11.573 and 8.182 and 10.695 and 13.978 and 10.12
reduction of collagen 1A1 or collagen 3A1 expression relative to sham (in words) ([2]; IRI, 14 day studies, two dosing schedules compared (days 3, 5, 7 i.p.)): statistically significant reduction of collagen expression with either dosing schedule
Collagen 1A1 (Normalized Expression), individual animal [2, 5]: 37.5 and 21.9 and 35.3 and 26.0 and 24.9 and 16.8 and 30.8 and 34.3 and 36.8 and 9.4 and 28.0 and 24.6
Collagen 3A1 (Normalized Expression), individual animal [2, 5]: 35.3 and 23.6 and 32.1 and 25.1 and 31.3 and 18.6 and 30.3 and 37.6 and 40.0 and 9.5 and 23.2 and 28.7
Collagen 1A1 (Normalized Expression), individual animal [2, 6]: 81.7 and 57.4 and 37.9 and 55.3 and 22.3 and 52.4 and 53.0 and 41.5
Collagen 3A1 (Normalized Expression), individual animal [2, 6]: 57.8 and 18.1 and 39.3 and 36.0 and 20.6 and 38.6 and 33.4 and 29.7
Collagen 1A1 (Normalized Expression), individual animal [2, 7]: 26.4 and 37.4 and 41.9 and 36.8 and 14.1 and 27.7 and 29.4 and 37.6
Collagen 3A1 (Normalized Expression), individual animal [2, 7]: 16.4 and 27.0 and 28.5 and 19.6 and 11.3 and 19.3 and 21.4 and 23.1
Survival rate 2 days after Nx ([3]; Study 4, Nx Day 7, 20 mg/kg on days 2, 3, 4 after IR): 75%
survival rate 2 days after nephrectomy ([3]; first three experiments: dosing days 5, 6, 7, nephrectomy day 10 or 11, PBS 55%, P=0.02): 80%
survival rate 2 days after nephrectomy ([3]; second three experiments: dosing days 2, 3, 4, nephrectomy day 7, PBS 52%, P=0.11): 69%
Collagen 1A1 (Normalized Expression), individual animal [4, 8]: 87.5 and 67.4 and 22.2 and 61.9 and 42.0 and 69.2 and 68.4 and 95.2
Collagen 3A1 (Normalized Expression), individual animal [4, 8]: 38.6 and 56.9 and 77.2 and 50.7 and 76.4 and 49.7 and 44.3 and 35.9
reduction in Col3a1 expression (in words) ([4]; UUO comparison with irbesartan, 25070 s.c. 20 mg/kg days -5, -2, +3, irbesartan perorally daily days 0-7, day 10): statistically significant reductions
reduction in Col1A1 expression relative to saline-treated animals (in words) ([4]; UUO comparison with irbesartan, 25070 s.c. 20 mg/kg days -5, -2, +3, irbesartan perorally daily days 0-7, day 10, p<0.05 one-way ANOVA): statistically significant reduction
Collagen 1A1 (Normalized Expression), Mean ([4]; UUO, 20 mg/kg at days -3, -1, +5 (prophylactic), kidney at day 11, group mean): 81.0
Collagen 1A1 (Normalized Expression), individual animal [4, 9]: 67.7 and 97.7 and 88.8 and 95.9 and 71.4 and 44.5 and 73.0 and 109.4
Collagen 3A1 (Normalized Expression), individual animal [4, 9]: 36.4 and 75.6 and 47.3 and 55.5 and 63.3 and 28.5 and 64.2 and 72.9
inhibition of collagen 1A1 expression [4, 10]: 40%
inhibition of collagen 3A1 expression [4, 10]: 30%
Collagen 1A1 (Normalized Expression), individual animal [4, 11]: 13.9 and 9.2 and 32.3 and 57.2 and 47.6 and 26.1 and 35.0 and 20.4
Collagen 3A1 (Normalized Expression), individual animal [4, 11]: 34.9 and 47.4 and 25.3 and 38.0 and 47.9 and 54.3 and 56.1 and 35.2
inhibition of collagen 1A1 and collagen 3A1 expression (in words) ([4]; repeated UUO study, subcutaneously 20 mg/kg, prophylactic): potent inhibitor of collagen 1A1 and collagen 3A1 expression
